Data from patent publication US11135214B2, “Methods for enhancing the bio availability and exposure of a voltage-gated potassium channel opener” (priority 2018, dated 2021).
Where two headings read alike, the source gives them in different places.

Legend:
[1] = Open-label randomized two-period fed/fasted crossover study, plasma PK; details: human, in vivo
Source text: The study consisted of two Treatment Periods, Period 1 and Period 2. Each Treatment Period consisted of 7 days, with the dosing of Compound A occurring on Day 1. The two treatment periods were separated by a washout period of 10 days. The subjects were randomized into two groups. During Treatment Period 1, one group received an oral dose of Compound A while fasted and the other group received an oral dose of Compound A when fed. The group which fasted in Treatment Period 1 was fed in Treatment Period 2 and vice versa.
On Day 1 of each Treatment Period, each subject orally received 20 mg of Compound A (4 capsules with 5 mg of Compound A in each capsule).
During the fed period, following an overnight fast of at least 10 hours, a standard high fat, high calorie breakfast was given as per FDA guidance; the breakfast was given 30 minutes prior to the scheduled dosing time, and was completed 10 minutes before dosing. A representative breakfast included 2 slices of buttered toast, 2 fried eggs, 2 strips of bacon, 4 oz. of hash brown potatoes, and 8 oz. of whole milk.
During the fasted period, dosing occurred after an overnight fast of at least 10 hours. No food was allowed for 4 hours post-dose in either the fed or fasted period. Water was allowed as desired except for one hour before and after dosing.
For all subjects, blood samples for the determination of Compound A plasma concentration were collected at dosing (0.0 hours (time zero)) and at 0.5, 1.0, 1.5, 2.0, 3.0, 4.0, 6.0, 8.0, 12.0, 24.0, 32.0, 48.0 and 144.0 hours post-dose.

[2] = First-in-human SAD and MAD study, pharmacokinetics; assay type: in vivo
Description: A first-in-human study was conducted to evaluate the safety, tolerability and pharmacokinetics (PK) of single and multiple ascending doses (SAD and MAD) of oral Compound A.
In the SAD Phase, 32 healthy volunteers were randomized (3:1) to Compound A (5, 15, 20, 25 or 30 mg) or placebo. The study featured an adaptive design. A crossover food effect cohort (N=10) was also completed with single doses of 20 mg. A sub-set of 8 male subjects were also assessed with Transcranial Magnetic Stimulation (TMS) for effects on cortical excitability (see Examples 4 and 5).
Repeat doses of Compound A (15 mg QD) were evaluated in a fasted and fed state over 7 and 10 days, respectively. Repeat doses of Compound A (25 mg QD) were also evaluated in a fed state over 10 days.
Compound A was formulated as an immediate release capsule. Serial plasma PK samples were collected for all cohorts. Safety evaluations throughout the study included adverse event (AE) monitoring, clinical laboratory tests, vital signs, ECGs, physical examinations and Columbia-Suicide Severity Rating Scale.

[3] = human, plasma, oral, 5 mg, SAD, 5 mg fasted, N=3, Mean ± SD
[4] = human, plasma, oral, 15 mg, MAD, 15 mg Fed, Day 1, N=6, mean
[5] = human, plasma, oral, 15 mg, MAD, 15 mg Fed, Day 10, N=6, mean
[6] = human, plasma, oral, 15 mg, MAD, 15 mg QD Fasted, Day 1, N=6, mean
[7] = human, plasma, oral, 15 mg, MAD, 15 mg QD Fasted, Day 7, N=6, mean
[8] = human, plasma, oral, 15 mg, SAD, 15 mg fasted, N=3, Mean ± SD
[9] = human, plasma, oral, 20 mg, SAD, 20 mg fasted, N=6, Mean ± SD
[10] = human, plasma, oral, 25 mg, MAD, 25 mg QD Fed, Day 1, N=6, mean
[11] = human, plasma, oral, 25 mg, MAD, 25 mg QD Fed, Day 10, N=6, mean
[12] = human, plasma, oral, 25 mg, SAD, 25 mg fed standard breakfast, N=6, Mean ± SD
[13] = human, plasma, oral, 30 mg, SAD, 30 mg fasted, N=6, Mean ± SD

Cc1cc(N2CCc3cc(F)ccc3C2)cc(C)c1NC(=O)CC(C)(C)C [Compound A, N-[4-(6-fluoro-3,4-dihydro-1H-isoquinolin-2-yl)-2,6-dimethylphenyl]-3,3-dimethylbutanamide]
concentration at 3 h ([1]; both sexes, fed, 20 mg oral, 3.0 h, individual subjects, read-out: Compound A Concentration): 104 ng/mL | Cmax ([1]; both sexes, fed, 20 mg oral, individual subjects): 104 ng/mL | bioavailability and exposure, fed compared to fasted conditions ([1]; po, 20 mg): significantly enhanced | absorption enhanced by food, AUCinf ([2]; crossover food effect cohort, 20 mg): ~1.8 fold | dose proportionality of exposure ([2]; fasted state): less than dose-proportional exposure | Cmax [2, 3]: 7.13 ± 6.12 ng/mL | Tmax [2, 3]: 3.17 ± 2.47 h | AUC(0-t) ([2]; human, plasma, oral, 5 mg, SAD, 5 mg fasted, N=3, Mean ± SD, read-out: AUC0-24): 74.6 ± 50.5 ng·h/mL | AUC(0-t) ([2]; human, plasma, oral, 5 mg, SAD, 5 mg fasted, N=3, tLast 32 h, Mean ± SD, read-out: AUC0-t): 91.3 ± 54.2 ng·h/mL | Cmax [2, 4]: 35.9 ng/mL | Tmax [2, 4]: 4.37 h | AUC(0-t) ([2]; human, plasma, oral, 15 mg, MAD, 15 mg Fed, Day 1, N=6, mean, read-out: AUC0-24): 353 ng·h/mL | Cmax [2, 5]: 60.8 ng/mL | Tmax [2, 5]: 3.69 h | AUC(0-t) ([2]; human, plasma, oral, 15 mg, MAD, 15 mg Fed, Day 10, N=6, mean, read-out: AUC0-24): 1020 ng·h/mL | AUC(0-t) ([2]; human, plasma, oral, 15 mg, MAD, 15 mg Fed, Day 10, N=6, mean, read-out: AUC0-t): 4950 ng·h/mL | Cmax [2, 6]: 10.5 ng/mL | Tmax [2, 6]: 2.68 h | AUC(0-t) ([2]; human, plasma, oral, 15 mg, MAD, 15 mg QD Fasted, Day 1, N=6, mean, read-out: AUC0-24): 125 ng·h/mL | Cmax [2, 7]: 45.1 ng/mL | Tmax [2, 7]: 2.69 h | AUC(0-t) ([2]; human, plasma, oral, 15 mg, MAD, 15 mg QD Fasted, Day 7, N=6, mean, read-out: AUC0-24): 757 ng·h/mL | AUC(0-t) ([2]; human, plasma, oral, 15 mg, MAD, 15 mg QD Fasted, Day 7, N=6, mean, read-out: AUC0-t): 4260 ng·h/mL | Cmax [2, 8]: 27.3 ± 11.1 ng/mL | Tmax [2, 8]: 4.5 ± 2.6 h | AUC(0-t) ([2]; human, plasma, oral, 15 mg, SAD, 15 mg fasted, N=3, Mean ± SD, read-out: AUC0-24): 328 ± 141 ng·h/mL | AUC(0-t) ([2]; human, plasma, oral, 15 mg, SAD, 15 mg fasted, N=3, tLast 32 h, Mean ± SD, read-out: AUC0-t): 397 ± 166 ng·h/mL | Cmax [2, 9]: 31.5 ± 21.1 ng/mL | Tmax [2, 9]: 3.69 ± 2.05 h | AUC(0-t) ([2]; human, plasma, oral, 20 mg, SAD, 20 mg fasted, N=6, Mean ± SD, read-out: AUC0-24): 376 ± 220 ng·h/mL | AUC(0-t) ([2]; human, plasma, oral, 20 mg, SAD, 20 mg fasted, N=6, tLast 72 h, Mean ± SD, read-out: AUC0-t): 709 ± 337 ng·h/mL | Cmax [2, 10]: 49.6 ng/mL | Tmax [2, 10]: 4.38 h | AUC(0-t) ([2]; human, plasma, oral, 25 mg, MAD, 25 mg QD Fed, Day 1, N=6, mean, read-out: AUC0-24): 592 ng·h/mL | Cmax [2, 11]: 96.7 ng/mL | Tmax [2, 11]: 4.99 h | AUC(0-t) ([2]; human, plasma, oral, 25 mg, MAD, 25 mg QD Fed, Day 10, N=6, mean, read-out: AUC0-24): 1720 ng·h/mL | AUC(0-t) ([2]; human, plasma, oral, 25 mg, MAD, 25 mg QD Fed, Day 10, N=6, mean, read-out: AUC0-t): 8010 ng·h/mL | Cmax [2, 12]: 45.8 ± 14.3 ng/mL | Tmax [2, 12]: 4.51 ± 1.22 h | AUC(0-t) ([2]; human, plasma, oral, 25 mg, SAD, 25 mg fed standard breakfast, N=6, Mean ± SD, read-out: AUC0-24): 482 ± 130 ng·h/mL | AUC(0-t) ([2]; human, plasma, oral, 25 mg, SAD, 25 mg fed, N=6, tLast 146 h, Mean ± SD, read-out: AUC0-t): 1470 ± 270 ng·h/mL | Cmax [2, 13]: 35.5 ± 33.5 ng/mL | Tmax [2, 13]: 3.17 ± 1.48 h | AUC(0-t) ([2]; human, plasma, oral, 30 mg, SAD, 30 mg fasted, N=6, Mean ± SD, read-out: AUC0-24): 369 ± 219 ng·h/mL | AUC(0-t) ([2]; human, plasma, oral, 30 mg, SAD, 30 mg fasted, N=6, tLast 72 h, Mean ± SD, read-out: AUC0-t): 837 ± 280 ng·h/mL | half-life at 10 days ([2]; human, plasma, oral, MAD, 15 mg Fed, Day 10, N=6, mean): 9.96 days | half-life at 7 days ([2]; human, plasma, oral, MAD, 15 mg QD Fasted, Day 7, N=6, mean): 6.96 days | half-life at 10 days ([2]; human, plasma, oral, MAD, 25 mg QD Fed, Day 10, N=6, mean): 9.08 days | half-life ([2]; human, plasma, oral, SAD, 5 mg fasted, N=3, Mean ± SD, read-out: T1/2 (converted)): 2950 ± 1870 min | half-life ([2]; human, plasma, oral, SAD, 15 mg fasted, N=3, Mean ± SD, read-out: T1/2 (converted)): 2510 ± 1870 min | half-life ([2]; human, plasma, oral, SAD, 20 mg fasted, N=6, Mean ± SD, read-out: T1/2 (converted)): 2930 ± 882 min | half-life ([2]; human, plasma, oral, SAD, 25 mg fed standard breakfast, N=6, Mean ± SD, read-out: T1/2 (converted)): 5830 ± 1080 min | half-life ([2]; human, plasma, oral, SAD, 30 mg fasted, N=6, Mean ± SD, read-out: T1/2 (converted)): 3800 ± 1690 min | half-life ([2]; human, plasma, oral, immediate release formulation, read-out: effective half-life): > 1440 min | dose proportionality of exposure ([2]; multiple doses, fed state): exposure increased in proportion to dose | apparent steady state achieved ([2]; multiple doses, 90% CI of successive day's exposure ratio within 0.8-1.25): 6 to 9 days | peak to trough ratio ([2]; once a day dosing): low | attainment of steady state ([2]; once per day dosing, without titration): 1 week
